# According to patent US10301272B2, “Carboxamide or sulfonamide substituted thiazoles and related derivatives as modulators for the orphan nuclear receptor ROR[γ]” (Phenex Pharmaceuticals AG, priority 2012, dated 2019):
# Target: RORγ (Homo sapiens, UniProt P51449)
# Assay: RORγ Gal4 Reporter Gene Assay
# Format: cell-based
# Settings: not given
# Protocol: Determination of a ligand mediated Gal4 promoter driven transactivation to quantify ligand binding to RORγ was performed as follows: DNA encoding three different RORγ protein fragments was cloned into vector pCMV-BD (Stratagene). Expression was under control of a CMV promoter and as fusion to the DNA-binding domain of the yeast protein GAL4. Other vectors used were pFR-Luc (Stratagene) as regulated reporter plasmid. pFR-Luc contains a synthetic promoter with five tandem repeats of the yeast GAL4 binding sites that control expression of the Photinus pyralis (American firefly) luciferase gene. In order to improve experimental accuracy the plasmid pRL-CMV was cotransfected. pRL-CMV contains the constitutive CMV promoter, controlling the expression of the Renilla reniformis luciferase.
# The medium is supplemented with 10% fetal bovine serum, 0.1 mM nonessential amino acids, 1 mM sodium pyruvate, 1% Glutamax and 100 units Penicilin/[…] per mL at 37° C. in 5% CO2.
# For the assay, […] were plated per well in 96 well plates in 100 μL per well, incubated over night at 37° C. in 5% CO2. […] About 4 h after addition of the transfection solution, fresh Minimal Essential Medium (MEM, same composition as used for plating cells, but without serum) was added. Then compound stocks, prediluted in MEM (same composition as used for plating cells) were added (final vehicle concentration not exceeding 0.1%).
# All experiments were done at least in triplicates.
# Sequence of RORγ (P51449 whole entry, looked up, the tested form may be a part): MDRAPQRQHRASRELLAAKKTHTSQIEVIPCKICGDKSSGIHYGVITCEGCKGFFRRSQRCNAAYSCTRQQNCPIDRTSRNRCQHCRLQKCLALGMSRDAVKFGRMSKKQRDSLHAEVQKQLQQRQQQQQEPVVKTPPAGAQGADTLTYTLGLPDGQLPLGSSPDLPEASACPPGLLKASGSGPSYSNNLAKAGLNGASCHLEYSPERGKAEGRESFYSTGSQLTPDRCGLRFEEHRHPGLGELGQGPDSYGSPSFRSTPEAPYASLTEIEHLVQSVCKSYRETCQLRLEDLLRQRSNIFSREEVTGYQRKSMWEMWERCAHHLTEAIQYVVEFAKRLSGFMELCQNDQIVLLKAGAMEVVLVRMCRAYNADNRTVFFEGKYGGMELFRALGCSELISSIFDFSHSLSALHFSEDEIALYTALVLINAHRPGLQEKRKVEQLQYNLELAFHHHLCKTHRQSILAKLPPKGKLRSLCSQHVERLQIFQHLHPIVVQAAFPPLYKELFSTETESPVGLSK
Compound,pIC50 (FF),pIC50 (REN)
CC(C)(C)NS(=O)(=O)c1ccc(-c2sc(C(=O)N3CCC(C(C)(C)C(=O)O)C3)nc2CC2CCCCC2)c2ccccc12 (stereo not shown) [6/50],nt/7.6/7.7,nt/7.6/7.7
CN(C(=O)c1nc(CC2CCCCC2)c(-c2cc(C(C)(C)C)cc(C3(C)CC3)c2)s1)C1CCOCC1 [6/52],nt/6.9/6.9,nt/6.9/6.9
CC(C)(C)NS(=O)(=O)c1ccc(-c2sc(C(=O)N3CCS(=O)(=O)CC3)nc2CC2CCCCC2)c2ccccc12 [6/55],nt/8.0/8.2,nt/8.0/8.2
CC(C)(C)NS(=O)(=O)c1ccc(-c2sc(C(=O)N3CCC(S(C)(=O)=O)CC3)nc2CC2CCCCC2)c2ccccc12 [6/56],nt/8.1/8.2,nt/8.1/8.2
CC(C)(C)NS(=O)(=O)c1ccc(-c2sc(C(=O)N3CC(S(C)(=O)=O)C3)nc2CC2CCCCC2)c2ccccc12 [6/57],nt/7.9/8.2,nt/7.9/8.2
CC(C)(C#N)CNC(=O)c1nc(CC2CCCCC2)c(-c2ccc(S(=O)(=O)NC(C)(C)C)c3ccccc23)s1 [6/58],nt/8.7/8.7,nt/8.7/8.7
CC(C)(C)NS(=O)(=O)c1ccc(-c2sc(C(=O)NCC(C)(C)c3nn[nH]n3)nc2CC2CCCCC2)c2ccccc12 [6/59],nt/7.6/7.8,nt/7.6/7.8
CC(C)(C)NS(=O)(=O)c1ccc(-c2sc(C(=O)NCC(C)(C)c3noc(=O)[nH]3)nc2CC2CCCCC2)c2ccccc12 [6/60],nt/8.5/8.7,nt/8.5/8.7
C[C@H](NC(=O)c1cc(-c2sc(C(=O)NCC(C)(C)c3nnn[nH]3)nc2CC2CCCCC2)cc(C2(C)CC2)c1)C(F)(F)F [6/62],nt/7.5/7.5,nt/7.5/7.5
Cc1c(-c2sc(C(=O)NC3CCS(=O)(=O)CC3)nc2CC2CCCCC2)cc(Cl)c(S(=O)(=O)NC(C)(C)C)c1Cl [6/63],nt/9.2/8.9,nt/9.2/8.9
CC(C)(CCO)NC(=O)c1cc(-c2sc(C(=O)NC3CCS(=O)(=O)CC3)nc2CC2CCCCC2)cc(C2(C)CC2)c1 [10/3],nt/7.9/8.0,nt/7.9/8.0
CC1(NC(=O)c2cc(-c3sc(C(=O)NC4CCS(=O)(=O)CC4)nc3CC3CCCCC3)cc(C3(C)CC3)c2)COC1 [10/4],nt/7.9/7.9,nt/7.9/7.9
Cc1c(-c2sc(C(=O)NC3CCS(=O)(=O)CC3)nc2CC2CCCCC2)cc(Cl)c(S(N)(=O)=O)c1Cl [17/2],nt/5.7/5.9,nt/5.7/5.9
CC(C)(C)NS(=O)(=O)c1cc(Cl)c(-c2sc(C(=O)N[C@H]3C[C@H](C(=O)O)C3)nc2CC2CCCCC2)cc1Cl [19/11],nt/7.6/7.7,nt/7.6/7.7
CC(C)(O)CNC(=O)c1nc(CC2CCCCC2)c(-c2ccc(S(=O)(=O)NC(C)(C)C)cc2OC(F)(F)F)s1 [21/8],nt/7.7/7.8,nt/7.7/7.8
CC(C)(O)CNC(=O)c1nc(CC2CCC(F)(F)CC2)c(-c2ccc(S(=O)(=O)NC(C)(C)C)c3ccccc23)s1 [21/11],nt/8.0/8.2,nt/8.0/8.2

Compound,pIC50 (FF),pIC50 (REN)
CC(C)(C)NS(=O)(=O)c1ccc(-c2sc(C(=O)NC3CCS(=O)(=O)CC3)nc2CC2CCC(F)(F)CC2)c2ccccc12 [21/12],nt/8.0/8.2,nt/8.0/8.2
CC(C)(C)NS(=O)(=O)c1ccc(-c2sc(C(=O)NC3CCS(=O)(=O)CC3)nc2CC2CCC2)c(Cl)c1Cl [21/14],nt/8.3/8.4,nt/8.3/8.4
CC(C)(C)NS(=O)(=O)c1ccc(-c2sc(C(=O)NC3CCS(=O)(=O)CC3)nc2CC2CCC2)c2ccccc12 [21/16],nt/8.4/8.4,nt/8.4/8.4
C[C@H](NS(=O)(=O)c1ccc(-c2sc(C(=O)NCC(C)(C)O)nc2CC2CCC2)c(OC(F)(F)F)c1)C(F)(F)F [21/18],nt/8.0/8.1,nt/8.0/8.1
C[C@H](NS(=O)(=O)c1ccc(-c2sc(C(=O)NCC(C)(C)O)nc2CC2CCC2)c(Cl)c1)C(F)(F)F [21/19],nt/7.9/7.9,nt/7.9/7.9
C[C@H](NS(=O)(=O)c1ccc(-c2sc(C(=O)NCC(C)(C)O)nc2CC2CCC2)c(C(F)(F)F)c1)C(F)(F)F [21/20],nt/7.7/7.7,nt/7.7/7.7
C[C@H](NS(=O)(=O)c1ccc(-c2sc(C(=O)NCC(C)(C)O)nc2CC2CCC2)c(OC(F)F)c1)C(F)(F)F [21/21],nt/7.7/7.8,nt/7.7/7.8
C[C@H](NS(=O)(=O)c1ccc(-c2sc(C(=O)NCC(C)(C)O)nc2CC2CCC(F)(F)CC2)c2ccccc12)C(F)(F)F [21/23],nt/8.7/8.6,nt/8.7/8.6
CC(C)(O)CNC(=O)c1nc(CC2CCC2)c(-c2ccc(S(=O)(=O)NC(C)(C)C)cc2OC(F)(F)F)s1 [21/24],nt/7.5/7.6,nt/7.5/7.6
CCC(C)(C)NS(=O)(=O)c1ccc(-c2sc(C(=O)NCC(C)(C)O)nc2CC2CCC2)c(OC(F)(F)F)c1 [21/25],nt/7.7/7.8,nt/7.7/7.8
CC(C)(C)NS(=O)(=O)c1ccc(-c2nc(C(=O)NC3CCS(=O)(=O)CC3)sc2CC2CCCCC2)c2ccccc12 [25/2],nt/9.0/9.0,nt/9.0/9.0
CC(C)(C)NS(=O)(=O)c1ccc(-c2oc(C(=O)NCCC(C)(C)C(=O)O)nc2CC2CCCCC2)c2ccccc12 [100/21],nt/7.2/7.1,nt/7.2/7.1
CC(C)(C)NS(=O)(=O)c1ccc(-c2oc(C(=O)N3CC4(C3)CS(=O)(=O)C4)nc2CC2CCCCC2)c2ccccc12 [100/24],nt/7.5/7.7,nt/7.5/7.7
CC(C)(C)NS(=O)(=O)c1ccc(-c2oc(C(=O)NC3CCS(=O)(=O)CC3)nc2CC2CCCCC2)c2ccncc12 [100/28],nt/7.1/7.2,nt/7.1/7.2
CC(C)(C)c1cc(-c2nc(C(=O)NC3CCS(=O)(=O)CC3)oc2CC2CCCCC2)cc(C2(C)CC2)c1 [103/3],nt/6.6/6.6,nt/6.6/6.6

# Same assay, conditions: firefly (FF) luciferase, 293T cells
row,Compound,pIC50 (FF)
1,CC(C)(C)NS(=O)(=O)c1ccc(-c2sc(C(=O)N[C@H]3C[C@H](C(=O)O)C3)nc2CC2CCCCC2)c2ccccc12 [7/9],8.7

# Same assay, conditions: firefly (FF) luciferase, 293T cells; read-out: pIC50 (FF) (converted)
row,IC50 [nM],Compound
1,1,C[C@H](NS(=O)(=O)c1ccc(-c2sc(C(=O)NC3CCS(=O)(=O)CC3)nc2CC2CCCC2)c2ccccc12)C(F)(F)F [8/11]
2,1.26,C[C@H](NS(=O)(=O)c1ccc(-c2sc(C(=O)NC3CCS(=O)(=O)CC3)nc2CC2CCCC2)c(Cl)c1Cl)C(F)(F)F [8/12]
3,10,CC(C)(C)NS(=O)(=O)c1ccc(-c2sc(C(=O)N[C@H]3C[C@H](C(=O)O)C3)nc2CC2CCCCC2)c(OC(F)(F)F)c1 [21/7]
4,20,CC(C)(C)NS(=O)(=O)c1ccc(-c2sc(C(=O)N[C@H]3C[C@H](C(=O)O)C3)nc2CC2CCC2)c(Cl)c1Cl [21/15]
5,7.94,CC(C)(C)NS(=O)(=O)c1ccc(-c2sc(C(=O)N[C@H]3C[C@H](C(=O)O)C3)nc2CC2CCC2)c2ccccc12 [21/17]
6,398,CC(C)(C)c1cc(-c2nc(C(=O)N[C@H]3C[C@H](C(=O)O)C3)oc2CC2CCCCC2)cc(C2(C)CC2)c1 [103/2]

# Same assay, conditions: renilla normalised (RENnorm) luciferase, 293T cells
row,Compound,pIC50 (REN)
1,CC(C)(C)NS(=O)(=O)c1ccc(-c2sc(C(=O)N[C@H]3C[C@H](C(=O)O)C3)nc2CC2CCCCC2)c2ccccc12 [7/9],9.0

# Same assay, conditions: renilla normalised (RENnorm) luciferase, 293T cells; read-out: pIC50 (REN) (converted)
row,IC50 [nM],Compound
1,1,C[C@H](NS(=O)(=O)c1ccc(-c2sc(C(=O)NC3CCS(=O)(=O)CC3)nc2CC2CCCC2)c2ccccc12)C(F)(F)F [8/11]
2,1.26,C[C@H](NS(=O)(=O)c1ccc(-c2sc(C(=O)NC3CCS(=O)(=O)CC3)nc2CC2CCCC2)c(Cl)c1Cl)C(F)(F)F [8/12]
3,6.31,CC(C)(C)NS(=O)(=O)c1ccc(-c2sc(C(=O)N[C@H]3C[C@H](C(=O)O)C3)nc2CC2CCCCC2)c(OC(F)(F)F)c1 [21/7]
4,20,CC(C)(C)NS(=O)(=O)c1ccc(-c2sc(C(=O)N[C@H]3C[C@H](C(=O)O)C3)nc2CC2CCC2)c(Cl)c1Cl [21/15]
5,6.31,CC(C)(C)NS(=O)(=O)c1ccc(-c2sc(C(=O)N[C@H]3C[C@H](C(=O)O)C3)nc2CC2CCC2)c2ccccc12 [21/17]
6,251,CC(C)(C)c1cc(-c2nc(C(=O)N[C@H]3C[C@H](C(=O)O)C3)oc2CC2CCCCC2)cc(C2(C)CC2)c1 [103/2]
